Reference: patent publication US7569351B2 (Oncotherapy Science, Inc., priority 2000, dated 2009)

Columns and labels:
[1] = tested on: mitochondrial ΔΨm; assay: Mitochondrial ΔΨm by Rhodamine 123 in HeLa mock parental cells; assay type: cell-based, human; conditions: MOI 100 pfu/cell, 60 hr after infection
Experimental: (§1) The cells were labeled with Rhodamine 123 at 60 hr after infection, and fluorescence was analyzed by FACScan. The horizontal axis indicates 10^0 at left end, 10^4 at right end, and 10^2 at center, respectively.
(§2) Next, the mitochondrial ΔΨm itself was analyzed. Detection of mitochondrial membrane potential was performed as follows. […] Sixty hours after infection, adherent and floating cells were collected by trypisinization, and washed twice with cold PBS. Rhodamine 123 (10 nM) in PBS was added to the cells, and were incubated for 30 min at 37° C. Fluorescence was measured by flow cytometry.

[2] = tested on: p53AIP1; assay: Antisense inhibition of p53AIP1 expression (RT-PCR); assay type: cell-based, human; conditions: U373MG, 1 μM oligonucleotide 4 hr, then Ad-p53, 48 hr
[3] = tested on: U373MG cells; assay: Antisense inhibition of p53-induced apoptosis (FACS); assay type: cell-based, human; conditions: 1 μM oligonucleotide 4 hr, then Ad-p53, 48 hr
[4] = tested on: MCF7 cells; assay: Antisense effect on apoptosis in MCF7 (FACS sub-G1); assay type: cell-based, human; conditions: MCF7, AS 1 μM
Experimental: MCF7 cells were transfected with AS or SE (1 μM) using Lipofectin reagent (GIBCO-BRL) for 4 hr, and treated with UV irradiation, STS or TNFα.
Cells were plated 24 hr before apoptosis-inducing treatment, and grown to 60%-70% confluency at the time of treatment. To test whether the expression of p53AIP1 in response to apoptotic stresses, MCF7 (breast carcinoma) cells were continuously incubated with staurosporine or TNFα, or were treated with UV at given dosages (J/m^2) using a UV cross-linker (Stratagene). Floating and adherent cells were collected, and subjected to analyses by Western blotting, FACS, and RT-PCR analysis. For FACS analysis, adherent and detached cells were combined and fixed with 75% ethanol at 4° C. After rinsed twice with PBS, cells were incubated at 37° C. for 30 min with 1 ml PBS containing boiled RNase. Cells were then stained in 1 ml PBS containing 10 μg of propidium iodide. The cells (2×10^4 or more) were analyzed in a flow cytometer (FACScalibur; Becton Dickinson) to determine the percentage of sub-G1 nuclei in the cell population. In situ terminal transferase-mediated dUTP nick end-labeling (TUNEL) was performed using Apoptag Direct (Oncor) according to the manufacturer's instructions.
Next, the intracellular localization of endogenous p53AIP1 during apoptosis through different-pathways was identified. In human breast carcinoma cells MCF7 that were not exposed to any apoptosis stimulator, the expression of p53AIP1 was not detected. […] No staining of p53AIP1 was observed after TNFα treatment (FIG. 17). To confirm the involvement of p53AIP1 in apoptotic processes, experiments using an antisense oligonucleotide (AS) corresponding to the p53AIP1 gene were performed. To inhibit endogenous p53AIP1 expression, antisense oligonucleotide (AS2: […]/SEQ ID NO: 30) and a control sense oligonucleotides (SE2: […]/SEQ ID NO: 31) were designed based on the sequence of the p53AIP1 gene, and then purified by HPLC. […] After 36 hr from the treatment, apoptotic cells were analyzed by FACS and TUNEL analysis.

[5] = tested on: p53AIP1; assay: Antisense inhibition of p53AIP1 expression in MCF7 (Western blotting); assay type: cell-based, human; conditions: MCF7, AS 1 μM, after UV irradiation, compared with sense oligonucleotide
From the text: (§3) FIG. 17 presents photographs showing the expression of p53AIP1 protein in the mitochondria, and the function of p53AIP1 protein in apoptosis induced by UV or STS. […] Twenty-four hours after STS and UV damage or 48 hr after TNFα damage, p53AIP1 protein and mitochondria in the cells were stained with FITC-conjugated rabbit anti-p53AIP1 antibody and Mito Tracker Red (CMXRos), respectively. The nuclei was visualized by DAPI staining. […] MCF7 cells were transfected with AS or sense oligonucleotides (SE) (1 μM) using Lipofectin reagent (GIBCO-BRL) for 4 hr, and then the cells were damaged by UV irradiation (50 J/m^2). Thirty-six hours after transfection, p53AIP1 expression was evaluated by Western blotting.
Next, the intracellular localization of endogenous p53AIP1 during apoptosis through different-pathways was identified. In human breast carcinoma cells MCF7 that were not exposed to any apoptosis stimulator, the expression of p53AIP1 was not detected. […] No staining of p53AIP1 was observed after TNFα treatment (FIG. 17). To confirm the involvement of p53AIP1 in apoptotic processes, experiments using an antisense oligonucleotide (AS) corresponding to the p53AIP1 gene were performed. […] After 36 hr from the treatment, apoptotic cells were analyzed by FACS and TUNEL analysis.

[6] = tested on: p53AIP1; assay: Immunocytochemical staining of endogenous p53AIP1 in mitochondria; assay type: cell-based, human; conditions: MCF7; STS 0.5 μM 24 hr, TNFα 10 ng/ml 48 hr
From the text: as §3
Incubation times and radiation doses were as follows: for RT-PCR, STS treatment was performed for 24 hr and TNFα and UV, for 48 hr; for Western blotting, STS, for 36 hr and TNFα and UV, for 48 hr; for FACS and TUNEL assays, STS (0.5 μM) and UV (50 J/m^2) for 36 hr and TNFα (10 ng/ml), for 72 hr; and for immunocytochemical analysis, STS (0.5 μM) and UV (50 J/m^2), for 24 hr and TNFα (10 ng/ml) for 48 hr.

[7] = tested on: p53AIP1; assay: p53AIP1 expression after apoptosis stimulators (Western blotting, RT-PCR); assay type: cell-based, human; conditions: MCF7 cells
Experimental: FIG. 15 presents photographs showing the expression of p53AIP1 through different apoptotic pathways, which was detected by Western blotting (A) and semiquantitative RT-PCR (B) analyses. MCF7 cells were collected at 36 hr after STS damage and 48 hr after UV or TNFα damage for Western blotting analysis, or 24 hr after STS damage, and 48 hr after UV or TNFα damage for RT-PCR. Expression of β-actin or β2MG serves as a control.
Cells were plated 24 hr before apoptosis-inducing treatment, and grown to 60%-70% confluency at the time of treatment. To test whether the expression of p53AIP1 in response to apoptotic stresses, MCF7 (breast carcinoma) cells were continuously incubated with staurosporine or TNFα, or were treated with UV at given dosages (J/m^2) using a UV cross-linker (Stratagene). […] The cells (2×10^4 or more) were analyzed in a flow cytometer (FACScalibur; Becton Dickinson) to determine the percentage of sub-G1 nuclei in the cell population. […]
For RT-PCR analysis, total RNA was first isolated from cells using the RNeasy spin column kit (QIAGEN) according to the manufacturer's instructions. cDNAs were synthesized from 5 μg of total RNA using SuperScript Pre-amplification System (GIBCO-BRL). The exponential phase was determined for RT-PCR within 15 cycles to 30 cycles to allow semiquantitative comparisons among cDNAs derived from identical reactants. […]

[8] = tested on: p21^Waf1; assay: Induction of p21Waf1 by DNA damage in NHDF (RT-PCR); assay type: cell-based, human; conditions: adriamycin 0.2 μg/ml
Experimental: (§4) Expression of the GAPDH gene was determined as a quantity control. p53AIP1 and p21/WAF1 expression induced by γ irradiation (IR) and adriamycin treatment (ADR) is analyzed.
(§5) DNA-damaging treatment was performed as follows.
(§6) Cells were inoculated 24 hr before treatment, and grown to 60% to 70% confluency. NHDF and SW480 cells were continuously treated with adriamycin (doxorubicin) at a concentration of 0.2 μg/ml or were treated with γ-ray irradiation at about 1 Gy/min (14 Gy).

[9] = tested on: p53AIP1; assay: Induction of endogenous p53AIP1 by DNA damage in NHDF (RT-PCR); assay type: cell-based, human; conditions: adriamycin 0.2 μg/ml
Experimental: as §4, §5, §6

[10] = tested on: mitochondrial ΔΨm; assay: Mitochondrial membrane potential by Mitotracker Red CMXRos; assay type: cell-based; conditions: 24 hr after transfection
Experimental: To evaluate the mitochondrial membrane potential, cells were incubated in culture media containing […] Mitotracker Red CMXRos (Molecular Probes) at 37° C. for 30 min, and then fixed to be labeled with a longer wavelength (579 nm to 599 nm) fluorescence emission.

[11] = tested on: T98G cells; assay: TUNEL analysis after transfection of expression vectors; assay type: cell-based, human; conditions: harvested 48 hr after transfection
Experimental: To investigate whether introduction of exogenous p53AIP1 could indeed induce apoptotic cell death, in situ terminal transferase-mediated dUTP nick end-labeling (TUNEL) analysis was performed. […] TUNEL analysis was performed using Apotag Direct ([…]) according to the manufacturer's instructions. […] DNA fragments were evaluated using the ApoAlert LM-PCR ladder assay kit (Clontech) according to the manufacturer's instructions.

[12] = tested on: mitochondrial ΔΨm; assay: Mitochondrial ΔΨm by Rhodamine 123 in HeLa cells overexpressing bcl-2; assay type: cell-based, human; conditions: both HeLa cell lines overexpressing bcl-2, 60 hr after infection
Experimental: as §1, §2

[13] = tested on: WTp53 cancer cell lines; assay: Anti-tumor effect in vitro, nine cancer cell lines containing wild-type p53; assay type: cell-based, human
Experimental: Apoptotic cells were analyzed by FACScan at 96 hr after infection.

LacZ: exogenous LacZ expressed from Ad-LacZ, control [reference compound]
down-regulation of mitochondrial ΔΨm [1]: did not

GGAGGCAGGTGAGGAG (listed as DNA, chemistry not given here) [SE1, reference compound]
inhibition of the induction of p53AIP1 expression [2]: not
inhibition of the induction of p53-induced apoptosis [3]: not

TCCCCTGGATGGGATC (chemistry not given here) [AS2]
inhibition of cell death induced by TNFα ([4]; TNFα 10 ng/ml): did not inhibit
apoptotic (sub-G1) cell population, second pair ([4]; reduced from 33%, after UV irradiation): 16%
apoptotic (sub-G1) cell population, first pair ([4]; reduced from 37%, stimulus not clearly printed): 28%
reduction in the p53AIP1 expression level [5]: 50%

TNFα
staining of p53AIP1 in the mitochondria [6]: No staining

CN[C@@H]1C[C@H]2O[C@@](C)([C@@H]1OC)n1c3ccccc3c3c4c(c5c6ccccc6n2c5c31)C(=O)NC4 [STS, staurosporine]
expression of p53AIP1 during apoptotic induction [7]: increased significantly in a dose-dependent manner
staining of p53AIP1 in the mitochondria [6]: intense staining

COc1cccc2c1C(=O)c1c(O)c3c(c(O)c1C2=O)C[C@@](O)(C(=O)CO)C[C@@H]3O[C@H]1C[C@H](N)[C@H](O)[C@H](C)O1 [adriamycin, adriamycin (doxorubicin)]
time of maximum p21^Waf1 expression [8]: 6 h
time of maximum levels of p53AIP1 [9]: 24 h

GATCCCATCCAGGGGA (listed as DNA, chemistry not given here) [AS1]
inhibition of the induction of p53AIP1 expression [2]: significantly inhibited
inhibition of the induction of p53-induced apoptosis [3]: significantly inhibited

B1: p53AIP1α: p53-dependent apoptosis-associated protein, 124 amino acids, SEQ ID NO: 2, expressed from vector (protein, listed as Homo sapiens)
chain: MGSSSEASFRSAQASCSGARRQGLGRGDQNLSVMPPNGRAQTHTPGWVSDPLVLGAQVHGGCRGIEALSVSSGSWSSATVWILTGLGLGLSRPFLPGATVLRDRPLGSAFELSYDQKKAPLRLQ
dissipation of mitochondrial ΔΨm [10]: Almost all cells
transfected T98G cells undergoing apoptosis (TUNEL) [11]: more than half
down-regulation of mitochondrial ΔΨm with bcl-2 overexpression [12]: blocked
down-regulation of mitochondrial ΔΨm [1]: down-regulated

B2: p53AIP1: p53-regulated Apoptosis Inducing Protein 1, exogenous expression by adenovirus-mediated gene transfer (protein)
chain: B1 chain
modifications: left off: small tags and cut ends
notes: p53-regulated Apoptosis Inducing Protein 1, exogenous expression by adenovirus-mediated gene transfer
induction of apoptosis in WTp53 cancer cell lines ([13]; nine lines tested, adenovirus-mediated gene transfer, 96 hr): effectively induced apoptosis in six of the WTp53 cancer cell lines
cell killing compared with p53 ([13]; the six responsive WTp53 lines): four of the six cell lines were killed more effectively
